Consider six molecules from patent US8658685B2, “Methods for treatment of kallikrein-related disorders” (Activesite Pharmaceuticals, Inc., priority 2008, dated 2014).

For assay [1], the system named is astrocytes. Kind of assay: Plasma kallikrein-induced ERK phosphorylation in astrocytes. The following applies: astrocytes exposed to plasma kallikrein. The class given is cell-based. An excerpt: (§1) We have also studied the effects of plasma kallikrein pathway activation on astrocytes. […] Exposure of astrocytes to plasma kallikrein potently stimulated ERK phosphorylation, and this action of kallikrein on astrocytes is not affected by B2-R antagonism (Hoe140). The effect of kallikrein on astrocytes was blocked by leupeptin, a protease inhibitor and C1-INH (data not shown). […] This is in contrast to the bradykinin effect, which is rapid and transient (data not shown). Plasma kallikrein's effect on ERK phosphorylation in astrocytes is dose dependent, reaching a maximal effect at 100 nM kallikrein (data not shown). […] In addition, plasma kallikrein binding to astrocytes was blocked by AS-440 (FIG. 9B) and C1-INH (data not shown).

Another assay has as its system blood-induced hematoma. Briefly: Hematoma after intracerebral infusion of autologous blood in diabetic rats. Particulars: systemic treatment, 48 h after intracerebral infusion of autologous blood. The class given is in vivo, Sprague-Dawley rats. Here is the method: We have compared the response to intracerebral infusion of blood in Sprague-Dawley rats with 1 mo of STZ-induced diabetes with age matched non-diabetic control rats. Fifty μL of autologous whole blood was collected from the tail vein and immediately infused 1 mm anterior, 4 mm lateral and 6 mm in depth to the bregma using a 30 gauge needle at 20 μL per minute. The infusion needle was removed 10 min after injection and the burr hole was sealed with bone wax. Forty-eight hours after intracerebral injection, the animals were perfused with saline and surface hematoma area was examined by measurement of hematoma area relative to total hemisphere area.

The subject of another assay is bradykinin-induced RVP. Kind of assay: Bradykinin-induced RVP in rats (vitreous fluorophotometry). The class given is in vivo. Particulars: pretreatment 2 days, 12 ug/day/200 g rat, subcutaneous Alzet pump. The text has this:
(§2) FIGS. 3A-3B are a set of two bar graphs that show the effects of intravitreal injection of kallikrein (FIG. 3A) and bradykinin (FIG. 3B) on RVP in rats measured using vitreous fluorophotometry. Activators of the kallikrein pathway, including purified activated plasma kallikrein, factor XII (FXII), high molecular weight kininogen (HK), and bradykinin, increase retinal vascular permeability (RVP) to fluorescein. In addition, inhibitors of the kallikrein pathway, such as complement I inhibitors and α2-macroglobulin reduced RVP. Direct injection of these kallikrein pathway activators into the vitreous was observed by SLO fundus imaging of the leakage from first phase fluorescein following bolus intravenous injection (FIG. 2) and by vitreous fluorophotometry, which measure the levels of fluorescein in the vitreous 30 min after intravenous injection (FIG. 5A). […] In addition, intravitreal injection of bradykinin can acutely increase RVP (FIGS. 2A and 2B). Moreover, pretreatment of rats for 2 days with Hoe140 (Bradykinin R2 antagonist, 12 ug/day/200 g rat delivered using a subcutaneous Alzet pump) inhibited bradykinin-induced RVP (FIG. 3B).

A further assay deals with brain astrocytes. Kind of assay: Bradykinin-induced ERK phosphorylation in brain astrocytes. Type of assay: cell-based.
Description: as §1

The subject of assay [2] is astrocytes. Kind of assay: Plasma kallikrein binding to astrocytes. Type of assay: cell-based.
Description: as §1

The test system of assay [3] is AngII-induced retinal vascular permeability. Kind of assay: AngII-induced retinal vascular permeability in rats. The class given is in vivo, rat. Particulars: AngII and ASP-465 via 2 Alzet pumps for 3 days; vitreous fluorophotometry. Here is the method:
Rats were implanted with a single subcutaneous osmotic pump containing Ang II or two pumps containing AngII and ASP-465, as indicated. RVP was measured using vitreous fluorophotometry after 3 days.
RVP was measured using Evan's blue dye method after 7 days.
We examined the effect of the kallikrein inhibitor ASP-465 on RVP induced by angiotensin II (AngII).

The subject of assay [4] is retinal vascular permeability (RVP). Kind of assay: Retinal vascular permeability to fluorescein, kallikrein pathway inhibitors. Particulars: in vivo.
Description: as §2, with “Activators” for “FIGS. 3A-3B are a set of two bar graphs that show the effects of intravitreal injection of kallikrein (FIG. 3A) and bradykinin (FIG. 3B) on RVP in rats measured using vitreous fluorophotometry. Activators”

For Hoe140 [reference compound], the “effect of kallikrein on ERK phosphorylation” value (“effect of kallikrein” for short) in the assay with astrocytes [1] is listed as “not affected”. Besides, in the assay with blood-induced hematoma, the hematoma area entry is “did not reduce”. For the same molecule, the “bradykinin-induced RVP” value with bradykinin-induced RVP was “inhibited”. Also, in the assay on brain astrocytes, the “bradykinin-induced ERK phosphorylation” value was “blocked”.

On to `CC(=O)N[C@@H](CC(C)C)C(=O)N[C@@H](CC(C)C)C(=O)N[C@H](C=O)CCCNC(=N)N` [leupeptin, reference compound], for which the “effect of kallikrein” value with astrocytes [1] is “blocked”.

With “C1-INH: C1-Esterase inhibitor, a serpin; major inhibitor of the classical complement pathway, contact activation system and intrinsic coagulation”, the “effect of kallikrein” value in the assay with astrocytes [1] was “blocked”. The “plasma kallikrein binding to astrocytes” value in the assay with astrocytes [2] is listed as “blocked”.

In the case of `Cc1cc(C(=O)NCc2ccc(C(=N)N)cc2)c(C)n1Cc1ccncc1` [ASP-465, 2,5-Dimethyl-1-pyridin-4-ylmethyl-1H-pyrrole-3-carboxylic acid 4-carbamimidoyl-benzylamide], the RVP entry in assay [3] was “normal levels of RVP”.

B1: α2-macroglobulin: inhibitor of the kallikrein pathway (protein, UniProt P01023 24-1474, looked up)
Alpha-2-macroglobulin: SVSGKPQYMVLVPSLLHTETTEKGCVLLSYLNETVTVSASLESVRGNRSLFTDLEAENDVLHCVAFAVPKSSSNEEVMFLTVQVKGPTQEFKKRTTVMVKNEDSLVFVQTDKSIYKPGQTVKFRVVSMDENFHPLNELIPLVYIQDPKGNRIAQWQSFQLEGGLKQFSFPLSSEPFQGSYKVVVQKKSGGRTEHPFTVEEFVLPKFEVQVTVPKIITILEEEMNVSVCGLYTYGKPVPGHVTVSICRKYSDASDCHGEDSQAFCEKFSGQLNSHGCFYQQVKTKVFQLKRKEYEMKLHTEAQIQEEGTVVELTGRQSSEITRTITKLSFVKVDSHFRQGIPFFGQVRLVDGKGVPIPNKVIFIRGNEANYYSNATTDEHGLVQFSINTTNVMGTSLTVRVNYKDRSPCYGYQWVSEEHEEAHHTAYLVFSPSKSFVHLEPMSHELPCGHTQTVQAHYILNGGTLLGLKKLSFYYLIMAKGGIVRTGTHGLLVKQEDMKGHFSISIPVKSDIAPVARLLIYAVLPTGDVIGDSAKYDVENCLANKVDLSFSPSQSLPASHAHLRVTAAPQSVCALRAVDQSVLLMKPDAELSASSVYNLLPEKDLTGFPGPLNDQDNEDCINRHNVYINGITYTPVSSTNEKDMYSFLEDMGLKAFTNSKIRKPKMCPQLQQYEMHGPEGLRVGFYESDVMGRGHARLVHVEEPHTETVRKYFPETWIWDLVVVNSAGVAEVGVTVPDTITEWKAGAFCLSEDAGLGISSTASLRAFQPFFVELTMPYSVIRGEAFTLKATVLNYLPKCIRVSVQLEASPAFLAVPVEKEQAPHCICANGRQTVSWAVTPKSLGNVNFTVSAEALESQELCGTEVPSVPEHGRKDTVIKPLLVEPEGLEKETTFNSLLCPSGGEVSEELSLKLPPNVVEESARASVSVLGDILGSAMQNTQNLLQMPYGCGEQNMVLFAPNIYVLDYLNETQQLTPEIKSKAIGYLNTGYQRQLNYKHYDGSYSTFGERYGRNQGNTWLTAFVLKTFAQARAYIFIDEAHITQALIWLSQRQKDNGCFRSSGSLLNNAIKGGVEDEVTLSAYITIALLEIPLTVTHPVVRNALFCLESAWKTAQEGDHGSHVYTKALLAYAFALAGNQDKRKEVLKSLNEEAVKKDNSVHWERPQKPKAPVGHFYEPQAPSAEVEMTSYVLLAYLTAQPAPTSEDLTSATNIVKWITKQQNAQGGFSSTQDTVVALHALSKYGAATFTRTGKAAQVTIQSSGTFSSKFQVDNNNRLLLQQVSLPELPGEYSMKVTGEGCVYLQTSLKYNILPEKEEFPFALGVQTLPQTCDEPKAHTSFQISLSVSYTGSRSASNMAIVDVKMVSGFIPLKPTVKMLERSNHVSRTEVSSNHVLIYLDKVSNQTLSLFFTVLQDVPVRDLKPAIVKVYDYYETDEFAIAEYNAPCSKDLGNA
For B1, in assay [4], the RVP entry is on record as “reduced RVP”.

B2: complement I inhibitors: inhibitors of the kallikrein pathway; probably complement 1 inhibitor (C1-INH) (protein, UniProt P05155 23-500, looked up)
Plasma protease C1 inhibitor: NPNATSSSSQDPESLQDRGEGKVATTVISKMLFVEPILEVSSLPTTNSTTNSATKITANTTDEPTTQPTTEPTTQPTIQPTQPTTQLPTDSPTQPTTGSFCPGPVTLCSDLESHSTEAVLGDALVDFSLKLYHAFSAMKKVETNMAFSPFSIASLLTQVLLGAGENTKTNLESILSYPKDFTCVHQALKGFTTKGVTSVSQIFHSPDLAIRDTFVNASRTLYSSSPRVLSNNSDANLELINTWVAKNTNNKISRLLDSLPSDTRLVLLNAIYLSAKWKTTFDPKKTRMEPFHFKNSVIKVPMMNSKKYPVAHFIDQTLKAKVGQLQLSHNLSLVILVPQNLKHRLEDMEQALSPSVFKAIMEKLEMSKFQPTLLTLPRIKVTTSQDMLSIMEKLEFFDFSYDLNLCGLTEDPDLQVSAMQHQTVLELTETGVEAAAASAISVARTLLVFEVQQPFLFVLWDQQHKFPVFMGRVYDPRA
As for B2, in assay [4], the RVP result is on record as “reduced RVP”.
